Tests used:
Experiment in all cases: relative viability (nuclei count vs DMSO), 5 days (fraction); higher = more cells survive
Lapatinib + AZD7762 = compound: CS(=O)(=O)CCNCc1ccc(-c2ccc3ncnc(Nc4ccc(OCc5cccc(F)c5)c(Cl)c4)c3c2)o1 [Lapatinib] + NC(=O)Nc1cc(-c2cccc(F)c2)sc1C(=O)N[C@H]1CCCNC1 [AZD7762] (partner 0.2 µM)
Method in brief: (§1)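 Medians of duplicate plates are given as relative viability. That measure is the nuclei count in treated wells divided by the count in vehicle wells. Counts were taken on 4× images of lung cancer cell lines in 1536-well plates, 5 days after pin-tool dosing the day after seeding with one drug alone or a fixed anchor-drug dose plus five library-drug doses (not always all listed) in √10 steps.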

Wnt-C59 + Foretinib = compound: CC1=NC=CC(=C1)C2=CC=C(C=C2)CC(=O)NC3=CC=C(C=C3)C4=CN=CC=C4 [Wnt-C59] + COc1cc2c(Oc3ccc(NC(=O)C4(C(=O)Nc5ccc(F)cc5)CC4)cc3F)ccnc2cc1OCCCN1CCOCC1 [Foretinib] (partner 0.25 µM)
Method in brief: as §1

Wnt-C59 + Phenformin = compound: CC1=NC=CC(=C1)C2=CC=C(C=C2)CC(=O)NC3=CC=C(C=C3)C4=CN=CC=C4 [Wnt-C59] + N=C(N)NC(=N)NCCc1ccccc1 [Phenformin] (partner 250 µM)
Method in brief: as §1

Lapatinib + Dasatinib = compound: CS(=O)(=O)CCNCc1ccc(-c2ccc3ncnc(Nc4ccc(OCc5cccc(F)c5)c(Cl)c4)c3c2)o1 [Lapatinib] + Cc1nc(Nc2ncc(C(=O)Nc3c(C)cccc3Cl)s2)cc(N2CCN(CCO)CC2)n1 [Dasatinib] (partner 0.075 µM)
Method in brief: as §1

Cell Line	relative viability (Lapatinib + AZD7762; first compound 0.02 µM)	relative viability (Lapatinib + AZD7762; first compound 0.06325 µM)	relative viability (Lapatinib + AZD7762; first compound 0.2 µM)	relative viability (Lapatinib + AZD7762; first compound 0.6325 µM)	relative viability (Lapatinib + AZD7762; first compound 2 µM)	relative viability (Wnt-C59 + Foretinib; first compound 0.001 µM)	relative viability (Wnt-C59 + Foretinib; first compound 0.01 µM)	relative viability (Wnt-C59 + Foretinib; first compound 0.03162 µM)	relative viability (Wnt-C59 + Foretinib; first compound 0.1 µM)	relative viability (Wnt-C59 + Phenformin; first compound 0.001 µM)	relative viability (Wnt-C59 + Phenformin; first compound 0.01 µM)	relative viability (Wnt-C59 + Phenformin; first compound 0.03162 µM)	relative viability (Wnt-C59 + Phenformin; first compound 0.1 µM)	relative viability (Lapatinib + Dasatinib; first compound 0.02 µM)	relative viability (Lapatinib + Dasatinib; first compound 0.06325 µM)	relative viability (Lapatinib + Dasatinib; first compound 0.2 µM)	relative viability (Lapatinib + Dasatinib; first compound 0.6325 µM)	relative viability (Lapatinib + Dasatinib; first compound 2 µM)
NCI-H1651	0.468	0.451	0.337	0.41	0.402	0.985	0.734	0.858	0.758	0.344	0.345	0.377	0.332	0.443	0.284	0.386	0.476	0.406
NCI-H2085	0.881	0.886	0.929	0.797	0.526	0.987	0.958	0.88	0.918	0.757	0.649	0.691	0.673	0.241	0.212	0.284	0.16	0.204
EKVX		0.518	0.693	0.708	0.663	0.763	0.725	0.833	0.714	0.225	0.216	0.216	0.241		0.321	0.423	0.384	0.196
NCI-H1437	1.13	1.11	1.1	1.07	1.06	1.31	1.28	1.29	1.26	0.297	0.296	0.297	0.26	0.28	0.245	0.382	0.304	0.345
BEN	0.499	0.704	0.587	0.855	0.556	0.877	0.615	0.786	0.747	0.292	0.27	0.269	0.247		0.307	0.303	0.28	0.358
NCI-H1666	0.573	0.815	0.762	0.778	0.619	0.894	0.994	0.92	0.985	0.54	0.498	0.531	0.561	0.764	0.612	0.748	0.661	0.508
LCLC-103H	0.61	0.575	0.791	0.836	0.727	0.752	0.891	0.889	0.641	0.352	0.334	0.366	0.329	0.312	0.378	0.455	0.511	0.416
LOU-NH91	0.76	0.58	0.696	0.703	0.599	0.941	0.764	0.988	0.92	0.793	0.641	0.601	0.672	0.365	0.398	0.431	0.46	0.404
NCI-H441	1.17		1.15	0.856	1.14	0.977	1.05	1.01	1.04	0.845	0.732	1.04	0.724		0.263	0.562	0.557	0.592
NCI-H1355	0.674	0.627	0.72	0.753	0.549	0.949	0.922	1.01	0.876	0.446	0.42	0.456	0.475		0.465	0.705	0.694	0.319
HCC-366		0.245	0.205	0.247	0.133	0.896	0.975	0.922	0.89	0.614	0.605	0.668	0.528		0.493	0.572	0.722	0.544
LK-2	0.393		0.379		0.636	1.28	1.02	1.46	1.25	0.479	0.379	0.481	0.321			0.264	0.283	0.35
PC-14	0.362	0.331	0.301	0.295	0.138	1.03	0.982	0.897	0.973	0.583	0.713	0.478	0.748	0.25	0.198	0.251	0.159	0.0375
NCI-H2087	1.5	1.47	1.17	1.36	1.25	1.1	0.979	0.947	1.01	0.504	0.416	0.547	0.465		0.609	0.874	0.988	0.854
HCC-15		1.09	1.24	1.24	1.16	1.09	1.09	1.04	0.992	0.47	0.515	0.48	0.438		0.403	0.591	0.622	0.551
NCI-H2126	0.55	0.927	0.983	0.975	0.928	1.2	1.11	1.05	1.25	0.542	0.507	0.53	0.541		0.404	0.533	0.559	0.387
EMC-BAC-2		0.938	1.05	1.13	1.18	0.946	0.964	0.967	0.561	0.533	0.484	0.525	0.505	0.294	0.162	0.349	0.358	0.279

Cell Line	relative viability (Lapatinib + AZD7762; first compound 0.02 µM)	relative viability (Lapatinib + AZD7762; first compound 0.06325 µM)	relative viability (Lapatinib + AZD7762; first compound 0.2 µM)	relative viability (Lapatinib + AZD7762; first compound 0.6325 µM)	relative viability (Lapatinib + AZD7762; first compound 2 µM)	relative viability (Wnt-C59 + Foretinib; first compound 0.001 µM)	relative viability (Wnt-C59 + Foretinib; first compound 0.01 µM)	relative viability (Wnt-C59 + Foretinib; first compound 0.03162 µM)	relative viability (Wnt-C59 + Foretinib; first compound 0.1 µM)	relative viability (Wnt-C59 + Phenformin; first compound 0.001 µM)	relative viability (Wnt-C59 + Phenformin; first compound 0.01 µM)	relative viability (Wnt-C59 + Phenformin; first compound 0.03162 µM)	relative viability (Wnt-C59 + Phenformin; first compound 0.1 µM)	relative viability (Lapatinib + Dasatinib; first compound 0.02 µM)	relative viability (Lapatinib + Dasatinib; first compound 0.06325 µM)	relative viability (Lapatinib + Dasatinib; first compound 0.2 µM)	relative viability (Lapatinib + Dasatinib; first compound 0.6325 µM)	relative viability (Lapatinib + Dasatinib; first compound 2 µM)
LXF-289	1.02	1.09	1.05	1.13	0.957	0.991	0.98	1.01	0.979	0.552	0.535	0.552	0.503	0.0714	0.116	0.224	0.273	0.179
EPLC-272H		0.191	0.228	0.175	0.252	0.722	0.667	0.831	0.697	0.297	0.303	0.335	0.335			0.359	0.367	0.272
NCI-H838	0.927	0.832	0.904	0.939	0.843	1.04	0.961	1.08	1.03	0.573	0.582	0.588	0.624	0.263		0.304	0.276	0.247
NCI-H2405		0.682		0.759	0.617	1.04	0.94	0.938	0.941	0.413	0.336	0.366	0.384	0.215	0.181	0.208	0.164	0.232
LC-2-ad		0.562	0.768	0.684	0.552	0.936	0.947	1.02	0.947	0.68	0.546	0.659	0.545		0.382	0.687	0.514	0.465
NCI-H3122	0.959	0.9	0.999	1.04	0.973	0.933	0.978	0.989	0.946	0.369	0.366	0.36	0.362	0.736	0.407	0.85	0.675	0.859
NCI-H727	0.634		0.443	0.551	0.395	0.983	0.917	0.887	0.904	0.337		0.545	0.66			0.317	0.338	0.359
A-427	0.709	0.658	0.745	0.793	0.681	1.02	0.977	1.29	1.24	0.334	0.338	0.407	0.384		0.664	0.825	0.745	0.692
201T	0.513	0.585	0.601	0.591	0.608	1.19	1.15	1.04	1.15	0.446	0.43	0.424	0.452	0.566	0.382	0.596	0.62	0.599
NCI-H1944	0.504	0.453	0.51	0.47	0.379	1.02	0.701	0.841	0.867	0.197	0.188	0.19	0.197	0.185	0.153	0.204	0.243	0.207
NCI-H1975	0.821	0.592	0.617	0.538	0.5	0.819	0.891	0.942	0.906	0.396	0.393	0.395	0.406	0.417	0.316	0.378	0.41	0.219
NCI-H322M	0.557	0.538	0.536	0.475	0.454	0.879	0.802	0.896	0.68	0.775	0.683	0.629	0.581	0.287	0.238	0.246	0.226	0.225
NCI-H1793		0.355	0.304	0.437	0.186	0.69		0.678	0.614	0.34		0.397	0.362		0.339	0.398	0.319	0.316
RERF-LC-KJ	0.391	0.936	0.717	0.877	0.707	0.889	0.832	0.915	0.926	0.441	0.478	0.433	0.419	0.812	0.545	0.732	0.75	0.36
NCI-H23			0.216	0.232	0.154	0.952	0.97	0.967	1.02	0.842	0.663	0.907	0.749			0.688	0.762	0.738
NCI-H2347	0.495	0.705	0.637	0.81	0.612	0.625	1.13	0.985	1.08	0.446	0.369	0.249	0.388		0.315	0.299	0.329	0.25
LCLC-97TM1			0.178	0.224	0.259	1.03	0.949	1.03	0.896	0.397	0.425	0.475	0.429			0.854	0.91	0.875

Reference: the supplement of paper PMC10307832
